Results reported in ChEMBL document CHEMBL3988442, “University of Dundee, Small-Polar-MMV Screening Library” (2021).
Where “and” joins values, the source holds several entries; their conditions need not be identical. Identical values can stand only once.

System: Plasmodium falciparum
Assay: Calibr Malaria Delayed Death Assay SOP
Format: functional, organism-based
Details: for IC50: Plasmodium falciparum

SMILES	pIC50	IC50 [µM]
CN(C)[C@@H]1CCN(c2ncccn2)[C@H]1Cc1ccccc1	6.116	0.554
CC(O)c1cccc(Nc2nc(NCCO)c3ccccc3n2)c1 (stereo unspecified)	6.601	0.22
Oc1ccc(Cl)cc1CNCc1ccccc1Cl	6.1	0.616
Oc1ccc(Cl)cc1CNCc1ccccc1C(F)(F)F	6.047	1.08
Cc1ccccc1CNCc1cc(Cl)ccc1O	6.395	0.601
COc1cccc(CNCc2ccccc2Cl)c1O	6.206	0.677
COc1cccc(CNCc2cccc(Cl)c2)c1O	6.064	0.914
COc1cccc(CNCc2ccc(F)cc2Cl)c1O	6.118	0.712
COc1cccc(CNCc2ccc(F)c(Cl)c2)c1O	6.294	0.5
Cc1cccc(NC(=O)c2cccc(OCc3nnnn3C)c2)n1	6.563	0.278
CCC(C)(C)n1nnnc1C(c1cccs1)N1CCc2ccccc2C1 (stereo unspecified)	6.38	0.55
Fc1ccc(Nc2ccc(C3CCN(Cc4ncc[nH]4)CC3)nc2)nc1	6.119	0.987
Cc1cccc(C)c1Nc1noc2c1CN(C(=O)c1ccnn1C)CC2	6.86	0.142
Cc1cccc(C)c1Nc1noc2c1CN(C(=O)c1cn(C)cn1)CC2	6.709	0.19
Cc1ccc(-c2ccccc2CC2(C(=O)NC(C)C)CCCNC2)cc1 (stereo unspecified)	6.259	0.491
Cc1cccc(C)c1Nc1noc2c1CN(C(=O)c1c[nH]nc1C)CC2	6.277	0.691
Cc1cccc(C)c1Nc1noc2c1CN(C(=O)c1ccn(C)n1)CC2	6.694	0.206
Nc1cc(-c2c[nH]nc2C2CCCN2CCCc2ccccc2)ccn1 (stereo unspecified)	6.087	0.785
Cc1nn(C)cc1C1=NS(=O)(=O)N(C)C(C(=O)Nc2ccc(Cl)cc2)=C1	6.442	0.247
Cc1cc(CN2CCc3nc(-c4ccncc4)nc(O)c3CC2)c(C)s1	5.926 and 6.258	–
FC(F)(F)c1cc(C2CCNCC2)nc(-c2ccsc2)n1	6.171	0.626
Cc1cccc(Nc2cccc(C3CCCN(Cc4ncc[nH]4)C3)n2)n1 (stereo unspecified)	6.378	0.465

SMILES	pIC50	IC50 [µM]
CC(C)NC(=O)C1(Cc2ccccc2-c2cccs2)CCNC1 (stereo unspecified)	6.06	0.982
CC(C)CNC(=O)C1(Cc2ccccc2-c2cccs2)CCNC1 (stereo unspecified)	6.092	0.626
CN(C(=O)c1ccon1)[C@@H]1CCC[C@@H](Oc2ccccc2)[C@@H]1O	5.983	1.19
CN1CCCCC1c1ncc2c(n1)CCN(Cc1ccc(F)cc1)C2 (stereo unspecified)	5.899	1.28
Cc1cnccc1CN1CC[C@@](C)(O)[C@H](Oc2cccc(F)c2)C1	5.517	2.33
Cc1cnccc1CN1CC[C@H](Oc2cccc(F)c2)[C@@](C)(O)C1	5.772	1.42
Cc1cccnc1CN1CC[C@H](Oc2cccc(F)c2)[C@@](C)(O)C1	6.112	0.71
Cc1ccsc1CN(CCCN(C)C)Cc1ccccn1	6.353	0.409
CN1CCC2(Cc3ccccc3CN(C(=O)Cc3cccc(Cl)c3)C2)C1 (stereo unspecified)	6.082	0.836
Cc1cnn(CCNCc2nccn2Cc2ccccc2)c1	6.212	0.395
CN1CCC(N(Cc2ccco2)S(=O)(=O)c2ccc(Cl)cc2)CC1	6.409	0.56
O=C(NC1CCN(CC2CC2)C1)N1CCC(OC2CCCCC2)CC1 (stereo unspecified)	6.591	0.332
O=C(NC1CCN(CC2CCCC2)C1)N1CCC(OCC2CC2)CC1 (stereo unspecified)	5.978	0.966
Cn1ccnc1CNC1CCCOc2c1ccc1ccccc21 (stereo unspecified)	5.947	1.2
Cc1ccc(CN(c2cc(C)nc3nc(C(F)(F)F)nn23)C2CC2)cc1	6.41	0.282
CC(C)(NCc1cccc(O)c1)c1ccc2c(c1)OCO2	5.935	0.894
Fc1cccc(C(NCc2ncc[nH]2)c2ccccn2)c1 (stereo unspecified)	6.434	0.351
Clc1cccc(C(NCc2ncc[nH]2)c2ccccn2)c1 (stereo unspecified)	6.581	0.225
c1cc(N2CCC(CN3CCOCC3)CC2)c2sccc2n1	6.066	0.867
CNC(=O)CCN(C)CC1(c2ccc(Br)cc2)CC1	6.438	0.34
CN1CCC(O)(CNCc2ccc(F)c(C(F)(F)F)c2)CC1	6.096	0.75
CCC(CNC(=O)CNC(C)=O)Oc1cccc(F)c1 (stereo unspecified)	5.937	1.02

SMILES	pIC50	IC50 [µM]
CCN1CCCN(S(=O)(=O)c2cc3ccccc3o2)CC1	6.321	0.532
CN(C)c1ccccc1CN1CCCCC1CNS(C)(=O)=O (stereo unspecified)	6.043	1.08
CCN(C)CC1CCN(S(=O)(=O)c2cc(C)c(F)cc2Cl)C1 (stereo unspecified)	5.917	0.986
O=C(Nc1nccs1)C1CCCN1Cc1ccccn1 (stereo unspecified)	6.607	0.229
CCNc1ccnc(CN2CCCC2C(=O)Nc2nccs2)c1 (stereo unspecified)	6.462	0.367
Cc1cccc(OC(C)C(=O)NCC2(N(C)C)CCCC2)c1 (stereo unspecified)	6.11	0.76
CCN1CCC(CNCc2cc(C)ccc2OC)C1 (stereo unspecified)	6.037	1.15
CNS(=O)(=O)c1cccc(C(C)NCc2ccccc2OC)c1 (stereo unspecified)	6.041	1.09
CCN(CC1CN(Cc2nc(C3CC3)no2)CCO1)c1cccnn1 (stereo unspecified)	5.75	1.86
CC(C)(C)C(=O)NCCNCc1ccc(Cl)c2cccnc12	6.099	0.703
Cc1ccc(S(=O)(=O)N2CCC(N3CCCCC3)CC2)cc1C	5.751	2.13
CCN1CCN(c2ccc(F)cc2C(C)NCc2ccccn2)CC1 (stereo unspecified)	6.099	0.651
CCN1CCN(c2ccc(F)cc2C(C)NCc2cscn2)CC1 (stereo unspecified)	5.999	0.907
Fc1ccc2c(C3=CCN(Cc4nnc(C5CCC5)o4)CC3)c[nH]c2c1	5.905	1.7
Cc1cc(Cl)ccc1S(=O)(=O)NCC(C)N1CCN(C)CC1 (stereo unspecified)	6.144	0.444
O=C(C(CNCc1ccsc1)c1ccccc1)N1CCOCC1 (stereo unspecified)	6.002	1.45
NCC(c1ccccc1)N1CCc2sccc2C1 (stereo unspecified)	6.206	0.699
Cl.Fc1cccc(F)c1Cn1c(C2CCNCC2)cc2cccnc21	6.523	0.307
Cc1nc(-c2ccc(F)c(F)c2)cc(C2CCNCC2)n1.Cl	6.123	0.797
Cl.OC1(c2ccc(F)cc2)CCN(Cc2ccccc2N2CCCC2)CC1	5.924	0.85
CC(C)(C)C(=O)N1C[C@H](c2ccsc2)[C@H]2CN(C3CCCCC3)CC[C@H]21.Cl	6.133	0.683
Cc1ccc(C2(CN3CCN(Cc4cnc(C)n4C)CC3)CC2)cc1.Cl	6.615	0.255

SMILES	pIC50	IC50 [µM]
COc1ccc(CN2CC[C@@H](O)[C@@H]2Cc2ccccc2)cc1.O=C(O)C(F)(F)F	5.901	1.54
CO[C@@H]1CCN(Cc2ccoc2)C[C@@H]1Cc1ccccc1.O=C(O)C(F)(F)F	5.938	1.08
CC(C)N(C)Cc1cnc2n1CCN(C(=O)NC1CCCC1)C2.O=C(O)C(F)(F)F	6.607	0.275
Cc1noc(C)c1CN1C[C@H]2CN(Cc3cccc(F)c3)C[C@H]2C1.O=C(O)C(F)(F)F.O=C(O)C(F)(F)F	5.762	1.22
Cc1ccc(CNC2CC3(CCN(CCO)CC3)c3ccccc32)s1.O=C(O)C(F)(F)F.O=C(O)C(F)(F)F (stereo unspecified)	6.464	0.322
COCCN1CCC2(CC1)CC(NCc1ccc(C)s1)c1ccccc12.O=C(O)C(F)(F)F.O=C(O)C(F)(F)F (stereo unspecified)	6.267	0.561
Fc1cnc(N2CCCC3(CCN(Cc4ccoc4)C3)C2)nc1.O=C(O)C(F)(F)F.O=C(O)C(F)(F)F (stereo unspecified)	5.93	1.21
Fc1cnc(N2CCCC3(CCN(Cc4ccsc4)C3)C2)nc1.O=C(O)C(F)(F)F.O=C(O)C(F)(F)F (stereo unspecified)	6.217	0.664
O=C(O)C(F)(F)F.O=C(O)C(F)(F)F.O=C(O)C(F)(F)F.c1cnn(C[C@@H]2C[C@@H]3CN(CC4CC4)CC[C@@H]3N2c2nccs2)c1	6.063	0.859
Cc1cc(C)cc(CN2C[C@H]3COC[C@H](N4CCN(C)CC4)[C@H]3C2)c1.O=C(O)C(F)(F)F.O=C(O)C(F)(F)F.O=C(O)C(F)(F)F	6.958	0.197
Cc1ccc(CN(CCN(C)C)Cc2c(C)nc3sccn23)o1.O=C(O)CC(O)(CC(=O)O)C(=O)O	6.093	0.506
Cc1ncc(CN(Cc2ccccn2)Cc2ccccc2Cl)n1C.O=C(O)CC(O)(CC(=O)O)C(=O)O	6.286	0.491
Cc1cc(C[C@@H]2CCC[C@H]2NCc2c[nH]nc2-c2ccccc2)on1.O=C(O)CC(O)(CC(=O)O)C(=O)O	5.845	1.23
CC1(C)CC(N(Cc2cccnc2)Cc2cccc(F)c2)CC(C)(C)N1.O=C(O)CC(O)(CC(=O)O)C(=O)O	6.708	0.291
Cc1ccsc1CN(Cc1cccnc1)C1CC(C)(C)NC(C)(C)C1.O=C(O)CC(O)(CC(=O)O)C(=O)O	6.511	0.29
CCCOc1ccccc1CN[C@@H]1CCC[C@H]1Cc1cc(C)no1.O=C(O)CC(O)(CC(=O)O)C(=O)O	5.985	1.23
CC1(C)CN(C(CNC2=NCCN2)c2ccc(Cl)cc2)CCO1.I (stereo unspecified)	6.344	0.478
I.c1cc2c(cc1C1(CNC3=NCCN3)CCCC1)OCCO2	6.321	0.547
Clc1ccc(C2(CNC3=NCCN3)CC2)cc1.I	6.323	0.505
Clc1ccc(C2(CNC3=NCCN3)CCCC2)cc1.I	6.736	0.226
